Test results as given in ChEMBL document CHEMBL4028910, “Discovery of Small-Molecule Inhibitors of Ubiquitin Specific Protease 7 (USP7) Using Integrated NMR and in Silico Techniques” (J Med Chem, 2017).

How the values were obtained:
[1] = biological target: T1, Ubiquitin carboxyl-terminal hydrolase 7 (Homo sapiens, UniProt Q93009); assay: Inhibition of native full length C-terminal USP7 (unknown origin) using ubiquitin-Rho110 as substrate incubated for 1 hr by fluorescence assay
[2] = biological target: T1, Ubiquitin carboxyl-terminal hydrolase 7; assay: Inhibition of USP7 in human SJSA cells assessed as increase in ubiquitinated MDM2 level after 16 hrs in presence of MG132 by MSD assay; assay type: cell-based
[3] = biological target: T1, Ubiquitin carboxyl-terminal hydrolase 7; assay: Binding affinity to human His-tagged and [15N-13C-2H], delta1[13CH3]-Ile, [13CH3]-Leu/Val and [13CH3]-Met-labeled USP7-catalytic domain (208 to 554 residues) expressed in Escherichia coli Rosetta 2 (DE3) cells by 2D[1H-15N]-based TROSY spectrum NMR analysis

T1 sequence (Q93009 whole entry): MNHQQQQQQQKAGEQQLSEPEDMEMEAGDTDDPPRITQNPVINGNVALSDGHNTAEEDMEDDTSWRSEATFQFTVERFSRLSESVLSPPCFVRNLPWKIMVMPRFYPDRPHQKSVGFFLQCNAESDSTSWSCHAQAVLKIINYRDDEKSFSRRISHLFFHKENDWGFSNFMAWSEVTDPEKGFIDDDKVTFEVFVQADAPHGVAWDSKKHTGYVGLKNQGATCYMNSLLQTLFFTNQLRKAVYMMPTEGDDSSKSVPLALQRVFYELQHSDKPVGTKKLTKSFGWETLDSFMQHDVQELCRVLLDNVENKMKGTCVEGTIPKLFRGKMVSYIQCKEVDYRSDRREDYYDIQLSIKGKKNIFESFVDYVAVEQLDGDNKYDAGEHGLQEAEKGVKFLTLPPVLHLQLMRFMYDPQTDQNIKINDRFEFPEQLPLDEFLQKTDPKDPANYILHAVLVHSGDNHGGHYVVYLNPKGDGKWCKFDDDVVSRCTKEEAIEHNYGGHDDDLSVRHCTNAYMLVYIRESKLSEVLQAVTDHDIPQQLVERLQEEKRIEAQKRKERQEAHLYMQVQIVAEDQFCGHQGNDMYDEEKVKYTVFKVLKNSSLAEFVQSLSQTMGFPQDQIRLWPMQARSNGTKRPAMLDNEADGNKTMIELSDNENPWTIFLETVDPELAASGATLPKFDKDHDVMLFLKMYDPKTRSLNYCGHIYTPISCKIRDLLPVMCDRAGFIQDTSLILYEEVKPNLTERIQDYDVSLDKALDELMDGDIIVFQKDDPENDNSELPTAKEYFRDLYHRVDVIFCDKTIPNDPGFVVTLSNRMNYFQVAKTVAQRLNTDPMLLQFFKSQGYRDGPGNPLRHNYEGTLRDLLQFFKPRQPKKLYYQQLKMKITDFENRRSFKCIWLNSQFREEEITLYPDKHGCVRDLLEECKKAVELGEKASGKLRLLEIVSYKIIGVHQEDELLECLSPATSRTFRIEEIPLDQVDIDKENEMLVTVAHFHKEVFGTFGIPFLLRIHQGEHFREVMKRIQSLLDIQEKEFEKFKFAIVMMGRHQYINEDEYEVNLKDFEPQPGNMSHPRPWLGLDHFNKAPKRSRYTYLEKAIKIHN

| IC50 [1] [µM] | EC50 [2] [µM] | Kd [3] [µM] | SMILES |
| --- | --- | --- | --- |
| 8.5 | 36.5 | – | Nc1nc(N)c(-c2ccc(O)cc2)cc1-c1ccc(O)cc1 |
| 85.2 | – | – | Oc1ccc(-c2nc(C3CCNCC3)co2)cc1 |
| 79.2 | – | 12 to 27 | CN1CCC(c2noc(-c3ccc(O)cc3)n2)CC1 |
| 0.48 | – | – | CCc1c(-c2ccc3cn[nH]c3c2)cnc(N)c1-c1ccc(O)cc1 |
| – | 0.3 | – | CCc1c(-c2ccc3[nH]ncc3c2)cnc(N)c1-c1ccc(O)cc1 |
| 22.4 | – | – | CCc1c(-c2ccc(O)cc2)cnc(N)c1-c1ccccc1 |
| 132 | – | – | Oc1ccc(-c2nc(C3CCNC3)no2)cc1 (stereo unspecified) |
| > 2000 | – | – | Fc1cccc(OCC2CCNCC2)c1 |
| 0.61 | – | – | CCc1c(-c2ccc(O)cc2)cnc(N)c1-c1ccc2[nH]ncc2c1 |
| 97.7 | – | 12 to 27 | Oc1ccc(-c2nc(C3CCNCC3)no2)cc1 |

The remaining lines, values behind:

| SMILES | IC50 [1] [µM] | EC50 [2] [µM] | Kd [3] [µM] |
| --- | --- | --- | --- |
| CC(=O)Nc1cccc(-c2cnc(N)c(-c3ccc(O)cc3)c2)c1 | 15.1 | – | – |
| CCc1c(-c2ccc(O)cc2)cnc(N)c1-c1cccc(C#N)c1 | 5.2 | 37.5 | – |
| CCc1c(-c2ccc(O)cc2)cnc(N)c1-c1ccc(O)cc1 | 2.5 | – | – |
| CC(C)c1c(-c2ccc(O)cc2)cnc(N)c1-c1ccc(O)cc1 | 21.4 | – | – |
| Oc1ccc(-c2ncc(C3CCNCC3)o2)c(F)c1 | 18.4 | – | – |
| CN1CCC(c2noc(-c3ccc(O)cc3)n2)C1 (stereo unspecified) | 131 | – | – |
| CCCc1c(-c2ccc(O)cc2)cnc(N)c1-c1ccc(O)cc1 | 13.6 | – | – |
| N#Cc1c(-c2ccc(O)cc2)cnc(N)c1-c1ccc(O)cc1 | > 200 | – | – |
| Nc1ncc(-c2ccccc2Cl)cc1-c1ccc(O)cc1 | 33.2 | – | – |
| CCc1c(-c2ccc(C(=O)NC)nc2)cnc(N)c1-c1ccc(O)cc1 | 1.34 | 2.58 | – |
| CCc1c(-c2cccc(C#N)c2)cnc(N)c1-c1ccc(O)cc1 | 2.5 | – | – |
| Oc1ccc(-c2ncc(C3CCNCC3)o2)cc1 | 32.8 | – | – |
| Nc1ncc(-c2ccc(O)cc2)cc1-c1ccc(O)cc1 | 11.1 | – | – |
| Cc1c(-c2ccc(O)cc2)cnc(N)c1-c1ccc(O)cc1 | 7.6 | – | – |
| CCc1c(-c2ccccc2)cnc(N)c1-c1ccc(O)cc1 | 9.6 | – | – |
| Oc1ccc(-c2cncc(-c3ccc(O)cc3)c2)cc1 | > 50 | – | – |
